Row | melting point [°C] | Structure (SMILES)
1 | 211 to 212 | S=c1[nH]c2ccc(-c3cccc(Cl)c3)cc2n1Cc1ccccc1
2 | 212 to 216 | Cc1nc(N)nc(N)c1-c1cc(Br)ccc1Cl
3 | 108 to 109 | CC(C)c1ccc(SCc2c(C(C)C)nc(C(C)C)c(CO)c2-c2ccc(F)cc2)cc1
4 | 175 to 176 | OCC1OC(n2c(Cl)nc3cc(Cl)c(Cl)cc32)C(O)C1O (stereo not drawn)
5 | 205 to 207 | CC(C)Cc1nc(-c2ccccc2)cnc1O
6 | 70 to 72 | CCOC(=O)C1CCn2c(cc3ccccc32)C1 (stereo not drawn)
7 | 75 | COc1ccc2c(c1)-c1c(ccn1C[C@@H](C)O)C2
8 | > 270 | O=c1[nH]c2cc(S(=O)c3cccc4cnccc34)c([N+](=O)[O-])cc2s1 (stereo not drawn)
9 | 151 | CCOC(=O)c1ccc(NS(C)(=O)=O)c(N)c1
10 | 146 | O=C(c1nc(-c2ccccc2)nc2ccccc12)N1CCC(CCO)CC1
11 | 183 to 184 | OCc1cnc2sc3ccccc3n12
12 | 247 to 248 | N#CCc1c(-c2ccccc2)[nH]c2nccnc12
13 | 177 | N#Cc1cc([N+](=O)[O-])ccc1NCCCn1ccnc1
14 | 78 to 80 | CCOC(=O)COc1ccc(N)cc1C(F)(F)F
15 | 220 to 222 | COc1ccccc1-n1c(=O)[nH]c2c(C(N)=O)nc(-c3ccc4nc(C(F)(F)F)[nH]c4c3)nc21
16 | 134 to 135 | Fc1cc(CC2(Cc3ccnc(F)c3)c3cccnc3-c3cccnc32)ccn1

Row | melting point [°C] | Structure (SMILES)
17 | 83.1 to 84.2 | CCCCc1c(-c2cc(C)c(O)c(C)c2)[nH]c2ccccc12
18 | 135 to 137 | Cc1cc(-c2ccco2)ccc1C(=O)CC(=O)C(F)(F)F
19 | 255 to 256 | CN(c1ccc(Cl)cc1)c1nc(=O)c2ccncc2s1
20 | 121 to 122 | OC(c1cc(-c2ccc(F)cc2)c(-c2ccc(F)cc2)[nH]1)C(F)(F)F (stereo not drawn)
21 | 140 to 142 | CCOC(=O)C(C#N)=CNc1ncccc1Cl
22 | 198 to 200 | COC(=O)C1(C)CCN(c2cccc(-c3cnc4[nH]cc(C(=O)C(C)(C)C)c4n3)c2)C1 (stereo not drawn)
23 | 177 to 179 | N#Cc1c[nH]cc1-c1ccc(Cl)cc1C(=O)c1ccccc1F
24 | 250 to 252 | COc1ccc2c(c1)c(-c1cc3c(Cl)ccnc3[nH]1)cn2C
25 | 124 to 126 | CCOC(=O)C1=CC(=NO)CC(c2ccc(Cl)cc2F)N1 (stereo not drawn)
26 | 116 to 117 | Cc1ccnc(C(c2cc(F)ccc2F)S(=O)(=O)c2ccc(Cl)cc2)c1 (stereo not drawn)
27 | 85 to 86 | Cc1ccc(-c2[nH]nc(COCCCO)c2-c2ccc(S(N)(=O)=O)cc2)cc1
28 | 115 to 116 | N#Cc1ccc(-c2ncc(C(F)(F)F)cc2Cl)cc1OCC(=O)C1CC1
29 | 185 to 187 | OCc1cc2ccnc(Cl)c2[nH]1
30 | 109 to 110 | O=C1NC(=O)C(Sc2ccc(Cl)cc2)S1 (stereo not drawn)
31 | 131 to 134 | Cc1cc(-n2ccnc2)ccc1N
32 | 148 to 150 | CCNc1nc(Nc2ccccc2)ncc1C(C)=CC(=O)OCC

Continued, compound first:

Row | Structure (SMILES) | melting point [°C]
33 | O=C(CCc1cccnc1)NCCCC1CCN(C(c2ccccc2)c2ccccc2)CC1 | 109 to 110
34 | CC(=O)NC(Cc1cccc(C(=O)OC(C)(C)C)c1)C(=O)OCc1ccccc1 (stereo not drawn) | 164 to 166
35 | CN1CC2CC1CN2c1cncc(Cl)n1 (stereo not drawn) | 125 to 126
36 | Cc1nc(NC(=O)c2cnn3c(C(F)(F)F)cc(-c4ccc(C(F)(F)F)c(Cl)c4)nc23)sc1S(N)(=O)=O | 299
37 | COc1c(SCCCN2CCC(Cc3ccccc3)CC2)ccnc1CSc1nc2ccccc2[nH]1 | 73 to 75
38 | O=C(C=C(O)c1cccnc1)C1CCN(CCc2ccccc2)CC1 | 75 to 77
39 | COC(=O)CCCCCCC(=O)c1ccc(OC)cc1 | 57 to 58
40 | CC(C)(C)c1cc(CSCCC(=O)NCCCCCCNC(=O)CCSCc2cc(C(C)(C)C)c(O)c(C(C)(C)C)c2)cc(C(C)(C)C)c1O | 126 to 130
41 | CC(C)(C)OC(=O)NCCNC(=O)c1noc(N)c1-c1ccccc1 | 144
42 | Cc1c2ccccc2c(O[Si](C)(C)C(C)(C)C)c2occ(CCC=O)c12 | 152 to 154
43 | CCCCCC12CCC(c3ccc(C#N)c(F)c3)(CC1)CC2 | 63
44 | COCCOc1cc2ncnc(NC3=CC(=O)C(N4CCCCC4)=CC3=O)c2cc1OC | 197 to 200
45 | O=C(NC1=Nc2cc(OCCn3cccc3)ccc2C2=NCCN12)c1cccnc1 | 209
46 | Cc1[nH]c2cccc3c2c1CC1C3=CC(C(=O)NN)CN1C (stereo not drawn) | 235 to 240
47 | CCn1ncc2c(-c3cncc(C)c3)c(C(=O)NCc3ccc(OC)cc3)c(-c3ccccc3)nc21 | 203 to 204
48 | COc1ccccc1Nc1cccc(C(=O)Nc2ccccc2)c1 | 153 to 154
49 | COc1cccc(COc2ccc(S(=O)(=O)c3ccc(C)nc3Nc3c(C)cc(C)cc3C)cc2)c1 | 124 to 126
50 | Cc1ccc(S(=O)(=O)OCC(=O)CC2CCC(C)CC2)cc1 (stereo not drawn) | 42 to 43.5
51 | O=c1ccn([C@@H]2C[C@H](O)[C@@H](O)[C@H]2O)c(=O)[nH]1 (racemic) | 229 to 230
52 | Cc1c(-c2ccccc2)nnc(N(C)C)c1C | 86 to 89
53 | Cc1cc(O)c(Oc2ccccc2C#N)cc1[N+](=O)[O-] | 157 to 159
54 | CCC(=O)c1cc(C2(c3cccc(-c4cccnc4F)c3)N=C(N)N(C)C2=O)cs1 (stereo not drawn) | 98 to 112

Row | Structure (SMILES) | melting point [°C]
55 | CC(=O)OC1CSC(Oc2cccc(-c3cnn(C)c3)c2)C(OC(C)=O)C1OC(C)=O (stereo not drawn) | 140
56 | CC1CC2C3C=C(Cl)C4=CC(=O)CCC4(C)C3C(O)CC2(C)C1C(=O)CO (stereo not drawn) | 229
57 | Nc1ccc(OCCCN2C(=O)c3ccccc3C2=O)cc1[N+](=O)[O-] | 164
58 | Cn1c(=O)cc(CN2CCC(c3c[nH]c4ccccc34)CC2)c2ccccc21 | 228 to 229
59 | COC1CCN(C2CCN(c3ccc(NC(=O)c4cnn(-c5ccc(Cl)cc5)c4C)cc3C#N)CC2)CC1 | 245
60 | CCn1ncnc1COc1nn2c(-c3ccccc3F)nncc2c1C(C)(C)C | 105
61 | CC1(C)C(C=C(Cl)Cl)C1(C)C(=O)O (stereo not drawn) | 137 to 138
62 | Cc1oc(C)c(C(=O)Nc2ccc(Cl)c(C(=O)OC(C)C)c2)c1C | 83 to 85
63 | Cc1ccc(S(=O)(=O)N(c2ccc([N+](=O)[O-])cc2Cl)C(C)C)cc1 | 154 to 157
64 | COC(=O)C(Oc1ccc(C2CCCCC2)cc1)c1ccc(Oc2ccc(Cl)cc2)cc1 (stereo not drawn) | 122 to 124
65 | CCCCCc1c(O)ccc2c1OCCC2=O | 132 to 134
66 | CN1CC(CCN2CCN(c3ccc(C(F)(F)F)cc3)CC2)OC1=O (stereo not drawn) | 116 to 117
67 | COc1cc2c(cc1OC)C1Cc3ccccc3CC(=O)N1CC2 (stereo not drawn) | 195 to 197
68 | CCC1(CC)c2ccccc2C(CC)(CC)N1OC(COC(C)(C)C)c1ccccc1 (stereo not drawn) | 85 to 86
69 | COc1ccc(NS(=O)(=O)c2ccc(N3CCNC3=O)cc2)cc1OC | 215 to 216
70 | CCCCCCCCCCC#CC#CCCCCCCCCC(=O)OC(=O)CCCCCCCCC#CC#CCCCCCCCCCC | 58 to 59.5
71 | COC(=O)C1CCc2cc(OCc3ccccc3)c(OCc3ccccc3)cc2C1O (stereo not drawn) | 121 to 124
72 | COc1ccc(-c2cc3cc(F)c(F)cc3[nH]2)cc1NS(=O)(=O)c1cccs1 | 211 to 213
73 | CCOC(=O)CCC(C)C1CC=C2C3=C(CCC21C)C1(C)CCC(O)C(C)(C)C1CC3 (stereo not drawn) | 122 to 124
74 | Cc1oc(-c2ccccc2)nc1COc1ccc(Cn2cc(CCC(=O)O)c(-c3ccc(C(F)(F)F)cc3)n2)cc1 | 149 to 150
75 | Cc1noc(C)c1S(=O)(=O)n1c(=O)oc2ccccc21 | 133 to 135
76 | COC(=O)c1cc(C(=O)OC)cc(S(=O)(=O)Nc2ccc(F)cc2C(F)(F)F)c1 | 142 to 150

Row | Structure (SMILES) | melting point [°C]
77 | COc1cccc(Cc2cc3cccc(-c4cccc(C(=O)NCCN5CCCC5)c4)c3o2)c1 | 101 to 102
78 | O=C(O)c1ccc(COc2ccc3cc(-c4ccc(-c5ccccc5)n4-c4ccccc4)ccc3c2)cc1 | 309 to 310
79 | Cc1cc(Cl)c(-n2nc(C)n(C(F)F)c2=O)cc1OC(C)C(=O)O (stereo not drawn) | 56 to 60
80 | NCC(CCO)c1ccc(Cl)c(Cl)c1 (single isomer, unassigned; (+)) | 80 to 81
81 | CN1C(=O)CCC2(CCC(=O)c3ccccc32)C1=O (stereo not drawn) | 136 to 138
82 | COc1ccc(S(=O)(=O)Nc2nc(-c3cccc([N+](=O)[O-])c3)cs2)cc1OC | 185
83 | C#CC(O)c1csc(C)n1 (stereo not drawn) | 94
84 | CCOC(=O)N(c1cccc(C(F)(F)F)c1)c1ccccc1N=NC(NC(=O)CCl)(C(=O)OCC)C(=O)OCC | 76 to 79
85 | O=Cc1cc(F)cc2c1OCCC2 | 55 to 57
86 | Cc1cccc(-c2nc(C(C)C)[nH]c2-c2cccc(-c3ccc(S(N)(=O)=O)cc3)c2)n1 | 255 to 258
87 | CC(C)(C)OC(=O)C[C@@H]1C[C@@H](COc2ccc(-c3ccc(C(=N)NC(=O)OCc4ccccc4)cc3)cc2)NC1=O | 136 to 140
88 | CCCCN(CCCC)C(=O)CC(C)Nc1c(C#N)cnn1-c1ccc(Cl)c(Cl)c1Cl (stereo not drawn) | 101 to 103
89 | O=C(O)C(CC1CCCC1)c1ccc([N+](=O)[O-])cc1 (stereo not drawn) | 119 to 125
90 | CSC(=C[N+](=O)[O-])NCCCOc1cccc(CN2CCCCC2)c1 | 68 to 69.5
91 | O=C(O)CCCCCO/N=C/c1cccnc1 | 117
92 | CC=Cc1ccc(CCNS(=O)(=O)c2ccc(Cl)cc2)cc1 | 153 to 155
93 | Cc1cc(OC(C)C)ccc1N1CCCn2c1nc1c(Cl)ccc(C(OC(F)F)C(F)(F)F)c12 (stereo not drawn) | 198 to 204
94 | CC(C)(C)c1nc2cc(N3CCOCC3)c(N)cc2s1 | 158 to 159
95 | Cc1cccc(C)c1CNc1cc(C(=O)N(C)C)nc2c(C)c(C)n(Cc3ccccc3)c12 | 203
96 | CCOC(=O)/C=C(C)/C=C/C=C(\C)C1=Cc2cc(C34CC5CC(CC(C5)C3)C4)ccc2OC1 | 178 to 179
97 | CC(C)C12OC1C1OC13C1(C)CCC4=C(COC4=O)C1CC1OC13C2O (stereo not drawn) | 226 to 228
98 | C[C@@H](c1ccc(F)cc1)N1CCN(c2cc(Nc3ccc4cccnc4c3)ncn2)CC1 | 206 to 207
